Measured values published in patent US20060252798A1, “Metal ion chelators and therapeutic use thereof” (priority 2003, published 2006).

Columns and labels:
[1] = Mouse weight loss and haematological indices in M109-bearing mice; assay type: in vivo; settings: Triapine 6 mg/kg; Mean ± SEM
Procedure: The tumour cells were passaged in CD2F1 mice by preparing a brei from the tumour and injecting it sc.^20 Dp44mT was dissolved in 30% (v/v) propylene glycol in saline and injected iv 4 days after tumour engraftment, twice daily for 5 days followed by a “rest period” of 2 days when the animal was not injected. On the twelfth day after tumour implantation, mice were sacrificed using methoxyfluorane and cardiac puncture performed. Blood counts and erythrocyte indices were measured using a Sysmex Blood Counter (Prince of Wales Hospital, Sydney, Australia). Mouse body weight changes during the treatment period were recorded. The tumours were weighed and fixed for histological examination. The experimental groups consisted of eight mice for the control and each treatment (Table 5).

[2] = system: MCF-7 breast cancer cells; assay: MTT cellular proliferation assay, MCF-7; assay type: cell-based, human; settings: Homo sapiens, MCF7, 72 h, Table 3; 72 h, MTT; mean ± SD; read-out: IC50 MCF-7 breast cancer
Procedure: […] […] […] After this incubation, 0.01 mL of MTT was added to each well and the plates incubated for 2 h at 37° C. The cells were then solubilised by adding 0.1 mL of 10% SDS-50% isobutanol in 0.01 M HCl and the plates then read at 570 nm on a scanning multiwell spectrophotometer (Titertek Multiscan; Beckman Instruments Inc, California). MTT colour formation was directly proportional to the number of viable cells.
(§1) Dp2mT served as a negative control.
(§2) Dp2mT served as a negative control as the methyl group at the 2-position hinders Fe-chelation.

[3] = system: SK-N-MC neuroepithelioma cells; assay: MTT cellular proliferation assay, SK-N-MC; assay type: cell-based, human; settings: Homo sapiens, SK-N-MC; Table 3; 0-25 μM, 72 h, MTT; mean ± SD; read-out: IC50 SK-N-MC neuroepithelioma
Procedure: […] […] After this incubation, 0.01 mL of MTT was added to each well and the plates incubated for 2 h at 37° C. The cells were then solubilised by adding 0.1 mL of 10% SDS-50% isobutanol in 0.01 M HCl and the plates then read at 570 nm on a scanning multiwell spectrophotometer (Titertek Multiscan; Beckman Instruments Inc, California). MTT colour formation was directly proportional to the number of viable cells.
The effect of the compounds on the proliferation of SK-N-MC neuroepithelioma cells was examined using the MTT assay (described above).
as §1

[4] = Maximum tolerated dose in CD2F1 hybrid mice; assay type: in vivo; settings: female, CD2F1, mouse, in vivo, iv
Procedure: BALB/c and DBA/2 mice were obtained from Animal Resources Centre (University of New South Wales (UNSW), Sydney, Australia) and crossed to produce CD2F1 animals (all procedures used were approved by the Animal Ethics Committee, UNSW). Groups of eight female CD2F1 mice (8-10 weeks old) were fed and watered ad-libitum, and injected via the tail vein with compounds being studied in 30% propylene glycol in 0.9% sterile saline, twice a day, 6 h apart, 5 days/week for 2 weeks. The maximum tolerated dose (MTD) was defined as the dose at which 30% of a cohort either died or lost weight in excess of 10%.^19

SK-Mel-28 melanoma cells = assay: MTT cellular proliferation assay, SK-Mel-28; assay type: cell-based, human; settings: Homo sapiens, SK-MEL-28, 72 h, Table 3, mean ± SD
Procedure: The final concentration of the compounds was 0.39-50 μM. […] […] After this incubation, 0.01 mL of MTT was added to each well and the plates incubated for 2 h at 37° C. The cells were then solubilised by adding 0.1 mL of 10% SDS-50% isobutanol in 0.01 M HCl and the plates then read at 570 nm on a scanning multiwell spectrophotometer (Titertek Multiscan; Beckman Instruments Inc, California). MTT colour formation was directly proportional to the number of viable cells.
as §1, §2

M109 lung carcinoma = assay: Inhibition of M109 lung carcinoma growth in vivo; parameters: species or system mouse; settings: 6 mg/kg (MTD), day 12
Procedure: Inhibition of M109 Lung Cancer Cell Growth by Iron Chelators In Vivo Female CD2F1 mice aged 8-10 weeks old were sc implanted with 1×10^5 M109 cells. The tumour cells were passaged in CD2F1 mice by preparing a brei from the tumour and injecting it sc.^20 Dp44mT was dissolved in 30% (v/v) propylene glycol in saline and injected iv 4 days after tumour engraftment, twice daily for 5 days followed by a “rest period” of 2 days when the animal was not injected. On the twelfth day after tumour implantation, mice were sacrificed using methoxyfluorane and cardiac puncture performed. Blood counts and erythrocyte indices were measured using a Sysmex Blood Counter (Prince of Wales Hospital, Sydney, Australia). Mouse body weight changes during the treatment period were recorded. The tumours were weighed and fixed for histological examination. The experimental groups consisted of eight mice for the control and each treatment (Table 5).
As a relevant positive control, animals were administered Triapine® at its MTD (6 mg/kg). The tumour weight was measured on the twelfth day after the tumour cell implantation.

## NC(=S)NN=Cc1ncccc1N [Triapine, 3-aminopyridine-2-carboxaldehyde thiosemicarbazone]
[1]
  Body weight loss: 5.3 ± 0.4 g
  Haematocrit: 0.28 ± 0.01
  Haemoglobin: 8.6 ± 0.5 g/dL
  Platelets: 976 ± 171 10^9/L
  RBC: 6.1 ± 0.4 10^12/L
  WBC: 1.4 ± 0.3 10^9/L
[2]
  IC50: 3000 ± 1500 nM
[3]
  IC50: 260 nM
[4]
  MTD at 2 weeks: 6 mg/kg
SK-Mel-28 melanoma cells
  IC50: 2600 ± 600 nM
M109 lung carcinoma
  tumour weight: 10 % of the control
